Assay results taken from article PMC10853936, “Heterologous investigation of metabotropic and ionotropic odorant receptors in ab3A neurons of Drosophila melanogaster” (Frontiers in Molecular Biosciences, 2024).

Biological target: T1, CpomOrco (homomeric) (Cydia pomonella, UniProt H9A5M2)
T1 construct: full-length CDS in pcDNA5/TO, expressed alone in HEK293 cells (HEK293A in methods, HEK293T in results)
T1 sequence (H9A5M2 1-473): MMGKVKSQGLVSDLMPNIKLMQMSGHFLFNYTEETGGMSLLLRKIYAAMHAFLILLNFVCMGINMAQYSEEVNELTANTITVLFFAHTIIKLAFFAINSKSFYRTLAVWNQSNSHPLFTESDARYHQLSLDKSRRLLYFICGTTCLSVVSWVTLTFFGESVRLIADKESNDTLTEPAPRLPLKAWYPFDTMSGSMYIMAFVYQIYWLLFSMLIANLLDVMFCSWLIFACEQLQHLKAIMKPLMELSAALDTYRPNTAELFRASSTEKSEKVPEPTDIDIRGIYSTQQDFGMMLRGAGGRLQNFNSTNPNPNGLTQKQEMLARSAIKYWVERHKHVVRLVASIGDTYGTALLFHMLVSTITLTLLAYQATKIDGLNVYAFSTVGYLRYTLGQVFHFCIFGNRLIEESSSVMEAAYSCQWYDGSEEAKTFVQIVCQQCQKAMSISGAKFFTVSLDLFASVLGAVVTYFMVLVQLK
Experiment: Fluo-4 calcium imaging in HEK293 cells, Hill fit
Format: cell-based
Settings: read-out: [VUAA1]1/2

EC50: 284 ± 39 µM
SMILES: CCc1ccc(NC(=O)CSc2nnc(-c3cccnc3)n2CC)cc1 [VUAA1, acetamide, N-(4-ethylphenyl)-2-[[4-ethyl-5-(3-pyridinyl)-4H-1,2,4-triazol-3-yl]thio]-]
